Data published in patent US12384740B2, “Cationic lipids and transfection methods” (Factor Bioscience Inc., priority 2019, dated 2025).

Tests used:
Assay type in all cases: cell-based
[1] = tested on: neonatal human epidermal keratinocytes (HEKn); test: Transfection of HEKn with GFP-encoding RNA complexed with lipid, mean fluorescence intensity per cell (Table 1); conditions: 20,000 HEKn per well, 24-well plate; 100 ng in vitro transcribed GFP RNA; 24 hours after transfection
Experimental: Stock solutions of lipid in ethanol were prepared at concentrations of between 5 mg/mL and 20 mg/mL and stored at −20° C. To perform transfections, nucleic acid was first diluted in DMEM (1 μg of nucleic acid in 50 μL of DMEM), then the desired amount of lipid stock solution was added. After adding the lipid, the solution was mixed thoroughly, and complexes were allowed to form for between about 5 minutes and about 25 minutes before adding to cells. For the experiments depicted in FIG. 1 through FIG. 6, the lipid was used without the acetone purification described in Example 5. Table 1 depicts the results of an experiment in which 20,000 neonatal human epidermal keratinocytes (HEKn) per well of a 24-well plate were transfected with 100 ng of in vitro transcribed RNA encoding green fluorescent protein (GFP) complexed with the indicated lipids. Fluorescence was measured 24 hours after transfection. Numbers indicate mean fluorescence intensity per cell (a.u.).

[2] = tested on: primary human epidermal keratinocytes; test: Transfection of primary human epidermal keratinocytes with GFP RNA in 100% FBS (FIG. 1, 2, 7)
Experimental: (§1) FIG. 1 depicts primary human epidermal keratinocytes cultured in a 24-well plate, and transfected with 400 ng per well of in vitro transcribed RNA encoding green fluorescent protein (GFP) complexed with the indicated lipid and with the indicated mass ratio of lipid to RNA. Complexation was performed in DMEM, and transfections were performed in 100% fetal bovine serum (FBS). Images were taken eight hours following transfection.
FIG. 2 depicts the experiment of FIG. 1, with fluorescence measured at the indicated time points following transfection using DHDLinS.
FIG. 3 depicts the results of an experiment conducted as in FIG. 1, but with the indicated amounts of RNA (in nanograms) and the indicated lipid-to-RNA mass ratios (in micrograms of lipid per microgram of RNA). Images were taken 16 hours following transfection. As shown in the figure, all RNA amounts and lipid-to-RNA mass ratios tested yielded a fluorescent signal.
FIG. 7 depicts the results of an experiment conducted as in FIG. 3, but with DHDLinS purified by extraction with acetone as described in Example 5.
(§2) Stock solutions of lipid in ethanol were prepared at concentrations of between 5 mg/mL and 20 mg/mL and stored at −20° C. To perform transfections, nucleic acid was first diluted in DMEM (1 μg of nucleic acid in 50 μL of DMEM), then the desired amount of lipid stock solution was added. After adding the lipid, the solution was mixed thoroughly, and complexes were allowed to form for between about 5 minutes and about 25 minutes before adding to cells. For the experiments depicted in FIG. 1 through FIG. 6, the lipid was used without the acetone purification described in Example 5.

[3] = tested on: human peripheral blood mononuclear cells (hPBMCs); test: Transfection of hPBMCs with GFP RNA (FIG. 4); conditions: 400 ng GFP RNA; 100% FBS; images 16 hours following transfection; both lipid-to-RNA mass ratios tested
Experimental: as §1
FIG. 4 depicts the results of an experiment conducted as in FIG. 1, but with human peripheral blood mononuclear cells (hPBMCs) instead of keratinocytes. Images were taken 16 hours following transfection. “LF3000” indicates cells transfected with LIPOFECTAMINE 3000 (cationic liposome formulation) commercial transfection reagent. “Neg.” indicates un-transfected cells.
as §2

[4] = tested on: confluent layer of primary human epidermal keratinocytes; test: Transfection of a confluent layer of primary human epidermal keratinocytes with GFP RNA (FIG. 5A/5B); conditions: 400 ng GFP RNA; 100% FBS; images 24 hours following transfection; both lipid-to-RNA mass ratios tested
Experimental: as §1
FIG. 5A depicts the results of an experiment conducted as in FIG. 4, but with a confluent layer of primary human epidermal keratinocytes instead of hPBMCs. Images were taken 24 hours following transfection.
FIG. 5B depicts the experiment of FIG. 5A, shown at higher magnification.
as §2

[5] = tested on: primary human adult dermal fibroblasts; test: Transfection of primary human adult dermal fibroblasts with GFP RNA (FIG. 6A/6B); conditions: 400 ng GFP RNA; 100% FBS; images 16 hours following transfection; both lipid-to-RNA mass ratios tested
Experimental: as §1
FIG. 6A depicts the results of an experiment conducted as in FIG. 4, but with primary human adult dermal fibroblasts instead of hPBMCs. Images were taken 16 hours following transfection.
FIG. 6B depicts the experiment of FIG. 6A, shown at higher magnification.
as §2

[6] = time course of FIG. 1 experiment, 400 ng GFP RNA, 100% FBS

Row | Compound | Fluorescence Intensity (mean fluorescence intensity per cell) [1] [a.u.] | further results
1 | CCCCC/C=C\C/C=C\CCCCCCCCN(CCCCN(CCCCCCCC/C=C\C/C=C\CCCCC)CC(O)CN)CC(O)CN (centres unmarked) [DHDLinS, N^1,N^4-dilinoleyl-N^1,N^4-di-(2-hydroxy-3-aminopropyl)-diaminobutane] | 8009 | Transfection efficiency (GFP fluorescence images) ([2]; 400 ng GFP RNA per well, transfection in 100% FBS, images eight hours following transfection, lipid without acetone purification): transfected with high efficiency; Change of fluorescence signal with lipid-to-RNA mass ratio ([2]; DHDLinS purified by extraction with acetone, lipid-to-RNA mass ratios greater than 2 μg/μg, images 16 hours following transfection): minimal increase in fluorescence signal; Signal intensity and number of fluorescent cells over time [2, 6]: increased for several hours following transfection; Time of first detection of fluorescent signal following transfection [2, 6]: detected one hour following transfection; Transfection of hPBMCs (GFP fluorescence images) [3]: effectively transfected; Transfection of confluent keratinocytes (GFP fluorescence images) [4]: effectively transfected; Transfection of dermal fibroblasts (GFP fluorescence images) [5]: effectively transfected
2 | CCCCC/C=C\C/C=C\CCCCCCCCN(CCCCCCCCCCN(CCCCCCCC/C=C\C/C=C\CCCCC)CC(O)CN)CC(O)CN (centres unmarked) [Formula I (n = 10), N^1,N^10-dilinoleyl-N^1,N^10-di-(2-hydroxy-3-aminopropyl)-diaminodecane] | 7842 | –
3 | CCCCC/C=C\C/C=C\CCCCCCCCN(CCCCCCN(CCCCCCCC/C=C\C/C=C\CCCCC)CC(O)CN)CC(O)CN (centres unmarked) [Formula I (n = 6), N^1,N^6-dilinoleyl-N^1,N^6-di-(2-hydroxy-3-aminopropyl)-diaminohexane] | 8596 | –
4 | CCCCC/C=C\C/C=C\CCCCCCCCN(CCCCCCCCN(CCCCCCCC/C=C\C/C=C\CCCCC)CC(O)CN)CC(O)CN (centres unmarked) [Formula I (n = 8), N^1,N^8-dilinoleyl-N^1,N^8-di-(2-hydroxy-3-aminopropyl)-diaminooctane] | 9170 | –
5 | CCCCC/C=C\C/C=C\CCCCCCCCN(CCCCCN(CCCCCCCC/C=C\C/C=C\CCCCC)CC(O)CN)CC(O)CN (centres unmarked) [Formula I (n = 5), N^1,N^5-dilinoleyl-N^1,N^5-di-(2-hydroxy-3-aminopropyl)-diaminopentane] | 7554 | –
6 | N^1,N^2-dilinoleyl-N^1,N^2-di-(2-hydroxy-3-aminopropyl)-diaminoethane [Formula I (n = 2)] | 6623 | –
7 | CCCCC/C=C\C/C=C\CCCCCCCCN(CCCCCCCCCCCCN(CCCCCCCC/C=C\C/C=C\CCCCC)CC(O)CN)CC(O)CN (centres unmarked) [Formula I (n = 12), N^1,N^12-dilinoleyl-N,N^12-di-(2-hydroxy-3-aminopropyl)-diaminododecane] | 5631 | –
